# Assays:
# [1] = tested on: −1812/+14 GNMT promoter-luciferase reporter cell line H7GPL; assay: GNMT induction capacity assay (GNMT promoter-luciferase reporter, H7GPL cells); format: cell-based, Human; details: for Relative Luciferase Activity (induction capacity): H7GPL cells
# Method: A −1812/+14 GNMT promoter-luciferase reporter cell line H7GPL was constructed. For the primary analysis, H7GPL cells seeded in 96-well plates were treated with individual drugs of 10 μM for 24 hours and then were lysed for the luciferase activity assay using Luciferase Assay System (Promega, Madison, WI, USA). Then, the secondary analysis was performed using the compounds with different doses. The same confirmed hits were used for cytotoxicity by using alamarBlue® reagent (AbD serotec, Oxford, UK). The cytotoxicity was measured according to the manufacturer's recommendation. Top hits were used for further studies.
# [2] = tested on: liver cancer cell lines (Huh7, Hep3B, HepG2); assay: Cell proliferation in liver cancer cell lines; format: cell-based, Human
# Method: (§1) Huh7, HepG2, PANC1, PC3, and BxPC3 cells were seeded in 96-well plates for 24 hours and exposed to the drugs with various concentrations. AlamarBlue® was added in to the cells and further incubated for 4 hours to assess the cytotoxic effect of the tested drugs. Blank wells (without cells) containing the same amount of test substances were used for background subtraction, and the relative number of viable cells were represented as the percentage of the mean of the relative solvent controls. AlamarBlue® assay (AbD Serotec, Oxford, UK) was used to assess cell viability according to the manufacturer's instructions.
# Huh7 and HepG2 cells = assay: Colony formation assay; format: cell-based, Human
# BxPC3 = assay: Cell viability, pancreatic cancer cell line BxPC3; format: cell-based; details: Homo sapiens, BXPC-3; BxPC3, pancreas
# Method: (§2) Human liver cancer cell lines (Huh7 and HepG2), human pancreatic cancer cell line (PANC1) and prostate cancer cell line (PC3) were cultured in Dulbecco's modified Eagle's medium (DMEM) supplemented with 10% fetal bovine serum (FBS) (HyClone, Logan, UT, USA), L-glutamine (2 mM), streptomycin (100 μg/mL), penicillin (100 U/mL) and nonessential amino acids (0.1 mM). Human pancreatic cancer cell line BxPC3 was cultured in the medium of Roswell Park Memorial Institute (RPMI) 1640 with the same supplements as in DMEM. All cell lines were maintained at 37 °C in a humidified CO2 incubator. H7GPL stable cells established by lentiviral-system was grown in DMEM supplemented with 1 μg/mL puromycin. The sorafenib were purchased from Sigma-Aldrich (St Louis, MO, USA).
# as §1
# PANC1 = assay: Cell viability, pancreatic cancer cell line PANC1; format: cell-based; details: Homo sapiens, PANC-1; PANC1, pancreas
# Method: as §2, §1
# DU145 = assay: Cell viability, prostate cancer cell line DU145; format: cell-based; details: Homo sapiens, DU-145
# PC3 = assay: Cell viability, prostate cancer cell line PC3; format: cell-based; details: Homo sapiens, PC-3
# Method: as §2, §1
# GNMT mRNA = assay: Endogenous GNMT mRNA in Huh7 cells (qRT-PCR); format: cell-based, Human
# Method: (§3) RNA was isolated by using Trizol reagent (Life Technologies) according to the manufacturer's protocol. Cellular RNA was reverse transcribed into complementary DNA using a SuperScript II RNase H-Reverse Transcriptase Kit (Life Technologies). PCR reactions were carried out using a Super Script II Reverse Transcriptase Kit (Invitrogen Inc., Carlsbad, CA, USA) on an Applied Biosystems Step-One-plus real-time PCR system (Applied Biosystems, Foster City, CA, USA). The mRNA level of TATA-box binding protein (TBP) was used as an internal control. The primer pairs used for qRT-PCR were: • TBP forward: SEQ ID NO: 1, • reverse: SEQ ID NO: 2, • MYC forward: SEQ ID NO: 3, • reverse: SEQ ID NO: 4, • p21 forward: SEQ ID NO: 5, • reverse: SEQ ID NO: 6, • p27 forward: SEQ ID NO: 7, • reverse: SEQ ID NO: 8, • GNMT forward: SEQ ID NO: 9, and • reverse: SEQ ID NO: 10.
# GNMT protein = assay: Endogenous GNMT protein in Huh7 cells (immunoblotting); format: cell-based, Human
# Method: (§4) Cells or xenograft tumors were harvested for lysate preparation by using RIPA buffer containing protease inhibitor cocktail (Roche Molecular Biochemicals) and phosphatase inhibitors (10 mM Na3VO4, 1 mM NaF, 5 mM NaPPi). Protein concentrations were quantified by Bio-Rad Protein Assay (Bio-Rad) and immunoblotting was carried out as previous description (Yen et al., 2012). Anti-MYC (D84C12, Cell Signaling Technology), anti-GNMT (YMAC-Bioteck) and anti-β-actin (AC-15, Sigma-Aldrich) antibodies were used according to the descriptions in manufacturer's instructions.
# Huh7 xenograft tumor = format: in vivo
# Text: (§5) All animal experiments were reviewed and approved by the Institutional Animal Care and Use Committee of Kaohsiung Medical University, and performed in accordance with relevant guidelines. Five to six-week-old male NOD-SCID mice were subcutaneously injected with Huh7 cells (1×10^6) in the right flank. Upon detection of palpable tumor, mice were randomly grouped and treated with 300 mpk, 100 mpk or 25 mpk of LKY4606D or KYT5397 and drug vehicle orally every day for 28 days. For K117, doses of 10 mpk and 25 mpk were used. For Sorafenib, dose of 25 mpk was used. Tumor growth was monitored (every day or three times per week) by measuring the length (L) and the width (W) of the tumor using Vernier caliper. Tumor volume (TV) was calculated by using the formula: volume=(L×W^2)/2. All drugs were dissolved in 0.5% carboxymethyl cellulose sodium salt.
# MYC mRNA = MYC mRNA expression in Huh7 cells (qRT-PCR); format: cell-based, Human
# Method: as §3
# p21 mRNA = p21 mRNA expression in Huh7 cells (qRT-PCR); format: cell-based, Human; details: after K117 treatment
# Method: as §3
# p27 mRNA = p27 mRNA expression in Huh7 cells (qRT-PCR); format: cell-based, Human; details: after K117 treatment
# Method: as §3
# MYC protein = MYC protein in Huh7 xenograft tumors (immunoblotting); format: in vivo; details: Huh7 xenograft tumors of treated mice
# Method: as §4
# as §5, with “All drugs were dissolved in 0.5% carboxymethyl cellulose sodium salt.” left out
# GNMT expression / MYC = details: pathogenesis of liver cancer, known; cited from earlier work
structure (smiles),measurement,setting,value
"C/C(=N\NC(=O)c1cccnc1N)c1ccccn1 [K117, N′-(1-(pyridin-2-yl)ethylidene)-2-carbohydrazide]",Relative Luciferase Activity (induction capacity),[1]; 5.0 μM,6.52 ± 0.12
same,Relative Luciferase Activity (induction capacity),[1]; 10 μM,10.36 ± 0.35
same,Induction of GNMT expression compared with K78,[1]; SAR study,more effective than K78
same,Induction of luciferase activity / GNMT promoter activity,"[1]; dose response (FIG. 2B, 4B)",induced GNMT promoter activity in a dose-dependent manner
same,Proliferation of liver cancer cells,[2],inhibited proliferation of all tested liver cancer cells in a dose-dependent manner
same,Colony formation,Huh7 and HepG2 cells,reduced the colony formation of Huh7 and HepG2 cells in a dose-dependent manner
same,IC50,BxPC3,1200 nM
same,IC50,PANC1,2200 nM
same,IC50,DU145,40.8 µM
same,IC50,PC3,15.3 µM
same,Endogenous GNMT expression at mRNA level,GNMT mRNA,induced
same,Endogenous GNMT expression at protein level,GNMT protein,induced
same,Tumor growth versus control group,Huh7 xenograft tumor; K117 10 mpk and 25 mpk,significant tumor growth reduction
same,Tumor growth effect compared with Sorafenib,Huh7 xenograft tumor; K117 10 mpk vs Sorafenib 25 mpk,same effect as Sorafenib 25 mpk
same,MYC mRNA expression,MYC mRNA,suppressed c-Myc mRNA expression dose-dependently
same,p21 mRNA expression,p21 mRNA,increased
same,p27 mRNA expression,p27 mRNA,increased
same,MYC protein expression in xenograft tumors,MYC protein,reduced
"O=C(OC[C@H]1O[C@@H](OC(=O)c2cc(O)c(O)c(O)c2)[C@H](OC(=O)c2cc(O)c(O)c(O)c2)[C@@H](OC(=O)c2cc(O)c(O)c(O)c2)[C@@H]1OC(=O)c1cc(O)c(O)c(O)c1)c1cc(O)c(O)c(O)c1 [PGG, 1,2,3,4,6-penta-O-galloyl-Beta-D-glucopyranoside]",GNMT expression / MYC regulation,GNMT expression / MYC,enhanced GNMT expression through MYC downregulation
"CNC(=O)c1cc(Oc2ccc(NC(=O)Nc3ccc(Cl)c(C(F)(F)F)c3)cc2)ccn1 [Sorafenib, sorafenib, reference compound]",Tumor growth versus solvent control,"Huh7 xenograft tumor; oral, K78 25, 100, 300 mpk, sorafenib comparison control",most significant difference
